From patent US20250243160A1, “INDOLE DERIVATIVES FOR TARGETING AUTOPHAGY” (Automera PTE. LTD, priority 2024, published 2025)

Columns and labels:
Recombinant p62 protein = Recombinant p62 protein (Homo sapiens, UniProt Q13501); experiment: Surface plasmon resonance (SPR) compound binding to p62; conditions: 15° C
Experimental: Recombinant p62 protein was buffer exchanged into Biacore SPR running buffer (Cytiva 100671) using the Slide-A-Lyzer Mini Dialysis system 7K MWCO (Thermo Fisher Scientific, Cat no. 69560). The final protein concentration was determined using the Nanodrop One spectrophotometer (Thermo Fisher Scientific, cat no. ND-ONE-W), with calibration for the dialysis buffer.
The prepared protein was diluted in sodium acetate buffer (NaAc, pH 5.5, Cytiva) to concentrations ranging from approximately 0.25-40 μg/mL. Post-immobilization, the protein required approximately 16 hours of equilibration in running buffer supplemented with 1% DMSO at 15° C. to ensure adequate surface equilibration and protein reorganization.
All SPR experiments were conducted at a constant temperature of 15° C. The SPR chip surface was activated using EDC/NHS for a contact time of 6-10 min at a flow rate of 10 μL/min. This was followed by protein immobilization for 2100 seconds and ethanolamine capping for 420 seconds, both at the same flow rate. Immediately after immobilization, the NH2-REEE peptide was analyzed in Single Cycle Kinetics mode (SCK) to verify surface activity, ensuring it binds the sample with the published affinity (˜20 μM by SPR).
For general compound binding studies, experiments were performed at 15° C. using a running buffer composed of 10 mM HEPES, 150 mM NaCl, 1 mM DTT, 0.05% Tween 20, and 1% DMSO at pH 7.4. The test compound was initially prepared at a 20 mM concentration in DMSO and subsequently titrated in 2-fold dilutions. For each assay, 2 μL of the compound was mixed with 198 μL of the running buffer, and the mixture was thoroughly pipetted approximately 15 times for homogenization.
A series of blank injections (0 μM concentration) were included for double referencing, with at least 8 or 16 per plate depending on the format. Typical injection parameters were 120 seconds for association and 180 seconds for dissociation at a flow rate of […]. A four-point solvent correction was prepared with DMSO concentrations ranging from 2% to 0.5% in the buffer. Post each compound injection, the system's needles were washed with 50% DMSO.
Analysis of the SPR data was conducted using the Cytiva Evaluation software. The binding levels at the late time-point of each interaction were corrected for reference, then normalized to percentage bound values to account for variations in immobilization levels, protein molecular weight, and compound molecular weight.
Compound binding studies were carried out according to experimental procedures above and SPR % occupancy was determined and summarized in Table 7.

p62 oligomers = molecular target: T1, p62 oligomers (Homo sapiens, UniProt Q13501); experiment: p62 oligomerization assay by Western blot in HeLa cells; type: cell-based; conditions: 24 hours treatment, relative to vehicle control (DMSO)
T1 construct: endogenous in cells; host or cells: HeLa
T1 sequence (Q13501 whole entry): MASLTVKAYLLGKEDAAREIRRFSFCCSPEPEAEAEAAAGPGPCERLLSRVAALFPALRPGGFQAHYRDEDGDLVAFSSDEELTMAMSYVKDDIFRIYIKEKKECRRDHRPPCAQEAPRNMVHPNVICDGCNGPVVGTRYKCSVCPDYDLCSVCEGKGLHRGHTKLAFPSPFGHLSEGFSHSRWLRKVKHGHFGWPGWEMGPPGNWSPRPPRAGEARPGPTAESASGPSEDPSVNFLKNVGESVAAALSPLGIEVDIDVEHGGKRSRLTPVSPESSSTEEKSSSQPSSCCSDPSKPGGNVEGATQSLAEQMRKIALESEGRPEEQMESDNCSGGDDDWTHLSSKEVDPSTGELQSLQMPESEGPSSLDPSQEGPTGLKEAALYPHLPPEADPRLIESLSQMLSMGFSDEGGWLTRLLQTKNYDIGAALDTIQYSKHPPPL
Experimental: HeLa cells were seeded in 6-well plates (700,000 cells) and allowed to adhere overnight. Media was replaced one hour before administering either vehicle (DMSO) or test compounds. After 24 hours of treatment, the media was discarded, and cells were rinsed once with ice-cold 1×PBS before detached from plates with ice-cold RIPA Lysis and Extraction Buffer (Thermo Fisher Scientific) which was supplemented with protease and phosphatase inhibitors. The resulting cell suspensions were transferred to pre-chilled microcentrifuge tubes, incubated on ice for 20 min with intermittent mixing and then centrifuged at 12,000 rpm for 20 min at 4° C. The supernatants were then aspirated slowly and transferred into new tubes kept on ice. The protein concentration in the samples was determined using BCA kit (Thermo Fisher Scientific) as per manufacturer's instructions.
For the p62 oligomerization and LC3 lipidation assays, cell lysates were prepared using RIPA buffer supplemented with 2% SDS and benzonase (Sigma). The lysates were then combined with 4× Laemmli protein sample buffer (Bio-Rad), heated at 70° C. for 10 min and subjected to a brief centrifugation of 10-15 seconds.
For p62 oligomerization and LC3 lipidation assays, lysates containing 30 μg of protein and for BRD4 and FKBP12(F36V) degradation assays, lysates containing 20 μg of protein, were loaded slowly into the wells of 4-20% gradient Tris-glycine gels (Bio-Rad). The gels were run at 100V until completion and transferred onto PVDF membranes. Membranes were blocked using 5% milk in TBS-Tween (0.1%) buffer at room temperature for 1 hour. The membranes were incubated with primary antibody in 5% milk-TBST with shaking, overnight at 4° C. The primary antibodies used were: p62 (Novus Biologicals 2C11, H00008878-MO1), LC3A/B (Cell Signalling Technology D3U4C, 12741S), FKBP12 (Abcam ab24373), BRD4 (Cell Signalling Technology E2A7X, 13440S), GAPDH (Cell Signalling Technology D4C6R, 97166S), and β-Actin (Proteintech 66009-1-Ig). Following primary antibody incubation, membranes were washed thrice with TBST 10 min before and after incubation with secondary-HRP conjugated antibody in 5% milk-TBST for 1 hour at room temperature. The secondary antibodies used were: Anti-Mouse IgG HRP Conjugate (Promega W4021B) and Anti-Rabbit IgG HRP Conjugate (Promega W4011). For the p62 oligomerization assay, the total protein levels were assessed using Ponceau staining (Thermo Fisher Scientific) of PVDF membrane as per recommendation by manufacturer's guidelines.
Imaging was acquired using SuperSignal™ West Pico PLUS Chemiluminescent Substrate (Thermo Fisher Scientific) with iBright Invitrogen FL100 imaging system. Band signal intensity, reflective of protein concentrations, were quantified using Invitrogen™ iBright™ Analysis and Image J software.
HeLa cells were treated with compounds for 24 hours to evaluate the effect of these compounds on p62 oligomerisation activity. The resulting changes in levels of p62 oligomers were assessed by Western blotting, as described in experimental procedures. The fold change of p62 oligomer levels induced by compound treatment relative to vehicle control (DMSO) was determined and summarized in Table 8. Specifically, FIGS. 2A-C show Western blot images and their corresponding quantification showing the levels of high molecular weight (100-200 kDa) p62 oligomers by 24 hours compound treatments at listed concentrations, relative to vehicle control (DMSO) in HeLa cells. Protein loading consistencies was assessed by Ponceau staining (not shown).

Chain of Recombinant p62 protein (Q13501 whole entry, species assumed): as the sequence (Q13501 whole entry) above

Row | SMILES | receptor occupancy at 100 µM (Recombinant p62 protein) [%] | p62 oligomerization (fold change of p62 oligomer levels) (p62 oligomers)
1 | OCCNCc1cc(F)cc2c1ccn2Cc1ccc(Cl)cc1 [Compound 45, 2-(((1-(4-chlorobenzyl)-6-fluoro-1H-indol-4-yl)methyl)amino)ethan-1-ol] | 30 to 70 | ++ (>2-fold change relative to DMSO control)
2 | OCCNCc1cccc2c1ccn2Cc1ccccc1 [Compound 1, 2-(((1-benzyl-1H-indol-4-yl)methyl)amino)ethan-1-ol] | 30 to 70 | ++ (>2-fold change relative to DMSO control)
3 | OCCNCc1cc(F)cc2c1ccn2Cc1ccc(F)cc1 [Compound 44] | > 70 | ++ (>2-fold change relative to DMSO control)
